The source of these data is publication PMC4038399, “Experimental validation of [sequence]^comb virtual ligand screening results for eight proteins yields novel nanomolar and micromolar binders” (Journal of Cheminformatics, 2014).

As a reminder, the MIC is the least concentration at which growth counts as inhibited. Low readings indicate inhibition by little substance, high ones a need for much substance.

pKd: −log10 of the molar value. Converted amounts (≈) assume the structure as drawn. Where two headings read alike, the source gives them in different places.

Experiment [1] concerns the target T1, pig heart malic dehydrogenase (malate dehydrogenase) (Sus scrofa, UniProt P00346).
T1 construct: pig heart malic dehydrogenase were obtained from Sigma-Aldrich; purchased Sigma-Aldrich; host or cells: pig heart
T1 sequence (P00346 25-338): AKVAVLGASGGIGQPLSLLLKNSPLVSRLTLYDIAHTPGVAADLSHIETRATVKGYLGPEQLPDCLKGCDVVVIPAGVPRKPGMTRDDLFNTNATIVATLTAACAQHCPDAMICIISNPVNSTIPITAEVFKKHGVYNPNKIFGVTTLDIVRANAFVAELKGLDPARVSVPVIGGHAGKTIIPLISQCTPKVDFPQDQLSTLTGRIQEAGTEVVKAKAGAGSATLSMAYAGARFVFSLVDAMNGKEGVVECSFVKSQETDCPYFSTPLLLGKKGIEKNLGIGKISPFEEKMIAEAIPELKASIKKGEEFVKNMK
In words: Thermal melt assay standardization. The experiment is classed as binding. The following applies: read-out: Tm shift. The procedure:
(§1) High throughput thermal shift assays were carried out following established guidelines (Additional file 1: Table S1). Protein melting curves were obtained from samples aliquoted in 96-well plates using a RealPlex quantitative PCR instrument from Eppendorf (Eppendorf, NY, USA), with Sypro orange dye from Invitrogen as the fluorescent probe. A uniform final concentration of 5 X (supplied as a 5000 X stock solution) was used in all experiments. […] For standardization, different buffers and pH were checked. Thereafter, 100 mM HEPES pH 7.3 and 150 mM NaCl were used in all unfolding experiments. The volume of each reaction was 20 μl, and appropriate dye and protein controls were included. All experiments were done with a minimum of two replicates, with the mean value considered for further analysis. Several drugs/small molecules interact with Sypro orange and lead to aberrant signal enhancements. An additional control to rule out drug-dye interaction was carried out with all the constituents kept constant except for the protein of interest. The protein/protein-drug curves were reported after subtracting the respective dye alone/drug-dye curves.
(§2) Thermal melt assays were standardized on several protein/ligand pairs with reported Tm shifts. Thermal melt curves for citrate synthase were generated with both cognate ligand oxaloacetate (cat. no. O4126) and non-cognate (and nonbinding) NADH. The protein concentration was 5 µM. Titration of oxaloacetate (10 µM-200 µM) was carried out to establish the concentration dependence of the melting temperature. Thermal melting of malic dehydrogenase was performed with its cognate ligand NADH (cat no. N8129) and non-cognate ligand oxaloacetate. Studies of the concentration dependence of NADH (1 mM-5 mM) on melting temperature shifts for malic dehydrogenase at 5 µM and 10 µM concentrations, respectively, were also performed.

Experiment [2] deals with HCT-116 colon carcinoma cell line. In words: Cytotoxic assay on cancer cell line. The experiment is classed as cell-based. To be noted: Homo sapiens, HCT-116, inhibitory concentration for 50% growth inhibition; read-out: HCT-116 (IC-50). The method, then:
(§3) Antimicrobial and anti-cancer tests were performed as in [80].

The test system of experiment [3] is vancomycin-resistant E. faecium (ATCC700221) (VREF). As to the kind of experiment: Antimicrobial assay (MIC). The experiment is classed as cell-based. The following applies: Enterococcus faecium, ATCC700221. The procedure:
as §3

The test system of experiment [4] is methicillin-resistant S. aureus (ATCC 33591) (MRSA). As to the kind of experiment: Antimicrobial assay (MIC). The experiment is classed as cell-based. To be noted: Staphylococcus aureus. The method, then: as §3
For experiment [5], the system named is multi-drug resistant E. coli SMS-3-4 (ATCC BAA-1743) (MDREC). In words: Antimicrobial assay (MIC). To be noted: Escherichia coli, ATCCBAA1743. The experiment is classed as cell-based. The procedure:
as §3

Experiment [6] concerns E. coli strain DH5α. In words: Antimicrobial assay (MIC). The experiment is classed as cell-based. The following applies: Escherichia coli, Minimum inhibitory concentration required for 90% clearance. The procedure:
as §3

Experiment [7] concerns several cancer cell lines including melanoma, prostrate, colon, and breast. Also noted: method as in PMID 22140110. To be noted: potency not revealed; PubChem CID 24198955; cited from earlier work.
The target in experiment [8] is E. coli dihydrofolate reductase (DHFR) (Escherichia coli, UniProt P0ABQ4). In words: biochemical. The experiment is classed as binding. The following applies: Table S3. In outline:
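Thermal unfolding of 10 μM protein with 1 mM predicted ligand and 5 X Sypro orange in 100 mM HEPES pH 7.3, 150 mM NaCl, qPCR read-out; dye/drug-dye backgrounds subtracted. Tm from Boltzmann fit of single sigmoidal transitions; approximate KD estimated at Tm from van't Hoff enthalpy, ΔCp ignored.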

For experiment [9], the target named is T2, carbonic anhydrase I from human RBC (Homo sapiens, UniProt P00915).
T2 construct: carbonic anhydrase I from human RBC; purchased Sigma-Aldrich; host or cells: human RBC
In words: Thermal melt assay standardization. The experiment is classed as binding. The procedure: as §1, §2

For experiment [10], the target named is T2, carbonic anhydrase I from human RBC. To be noted: read-out: dissociation constant, reported values; cited from earlier work.

T2 sequence (P00915 whole entry): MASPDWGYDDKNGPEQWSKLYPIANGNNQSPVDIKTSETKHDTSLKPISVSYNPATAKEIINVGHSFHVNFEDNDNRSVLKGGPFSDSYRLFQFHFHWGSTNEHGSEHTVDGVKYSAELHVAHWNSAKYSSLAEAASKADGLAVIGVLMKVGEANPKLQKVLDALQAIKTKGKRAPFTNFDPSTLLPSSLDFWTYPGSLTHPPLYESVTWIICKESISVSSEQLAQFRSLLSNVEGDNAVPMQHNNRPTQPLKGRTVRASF
Sequence of E. coli dihydrofolate reductase (DHFR) (P0ABQ4 whole entry): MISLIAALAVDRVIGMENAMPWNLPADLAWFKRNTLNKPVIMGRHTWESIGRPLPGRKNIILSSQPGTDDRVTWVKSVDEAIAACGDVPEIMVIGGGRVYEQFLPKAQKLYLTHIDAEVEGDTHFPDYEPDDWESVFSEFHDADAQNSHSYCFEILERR

For `NC(=O)C1=CN([C@@H]2O[C@H](COP(=O)(O)OP(=O)(O)OC[C@H]3O[C@@H](n4cnc5c(N)ncnc54)[C@H](O)[C@@H]3O)[C@@H](O)[C@H]2O)C=CC1` [NADH, nicotinamide adenine dinucleotide], in [1] (1 mM NADH), the ΔTm at 1000 µM turned out to be 11 °C. The ΔTm at 10000 µM in [1] (10 mM NADH) was 17 °C.

Turning to `Nc1ccc(Cn2ccc3c4c(N)nc(N)nc4ccc32)cc1` [NSC 309401, 7-[(4-aminophenyl)methyl]-7Hpyrrolo [3,2-f] quinazoline-1,3-diamine], the IC50 in [2] came out at 0.13 mg/L (≈ 0.427 µM). The MIC in experiment [3] was found to be 31.2 mg/L (≈ 103 µM); in experiment [4] it was 31.2 mg/L (≈ 103 µM); in experiment [5], 125 mg/L (≈ 411 µM); in experiment [6], 7.8 mg/L (≈ 25.6 µM). Moreover, the “activity against cancer cell lines, in words” value in experiment [7] is “has activity”.

Regarding `Nc1nc(N)c2c(ccc3[nH]ccc32)n1` [NSC 339578, 7H-Pyrrolo(3,2-f) quinazoline-1,3-diamine, reference compound], the IC50 in experiment [2] came to 6.11 mg/L (≈ 30.7 µM). The MIC in experiment [3] is 31.2 mg/L (≈ 157 µM); in experiment [4], 31.2 mg/L (≈ 157 µM); in experiment [5], 250 mg/L (≈ 1250 µM); in experiment [6], 62.5 mg/L (≈ 314 µM). The pKd in experiment [8] (computed from the thermal shifts obtained, read-out: KD (Approx)) was roughly 6.94. The “Q (quality score)” value in [8] (ratio ΔFmelt/ΔFtotal of the melting curve) is given as 1.4.

Turning to `NS(=O)(=O)C(F)(F)F` [TFMSA, trifluoromethane- sulfonamide], in [9] (read-out: Tm shift), the ΔTm at 500 µM is 7.2 °C, the ΔTm at 1000 µM is 9 °C and the ΔTm at 10000 µM is 12.3 °C. The pKd in experiment [9] (read-out: calculated approximate dissociation constants) is 5.64 to 6.11. The pKd in experiment [10] is 5.66 to 6.00.
